Broadly, the IC50 is the midpoint of a concentration-inhibition curve. A high value points to weaker potency in that assay.

For the assay, the target named is T1, PKR/PACT (GST-PKR-Nter / His-PACT) (Homo sapiens, UniProt O75569+P19525).
T1 construct: gene EIF2AK2; PKR 1-265 (both DRBDs, no kinase domain) with N-terminal GST; full-length PACT with N-terminal His tag; E. coli
T1 sequence (P19525 1-265): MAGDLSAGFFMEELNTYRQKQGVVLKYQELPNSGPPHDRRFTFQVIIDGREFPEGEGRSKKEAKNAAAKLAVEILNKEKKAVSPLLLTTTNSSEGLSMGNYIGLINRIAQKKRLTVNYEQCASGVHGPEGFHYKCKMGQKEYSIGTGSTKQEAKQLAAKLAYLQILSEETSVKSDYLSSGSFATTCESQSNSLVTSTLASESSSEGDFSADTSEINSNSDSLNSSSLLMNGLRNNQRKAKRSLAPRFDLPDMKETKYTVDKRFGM
T1 sequence (O75569 whole entry, the tested form may be a part): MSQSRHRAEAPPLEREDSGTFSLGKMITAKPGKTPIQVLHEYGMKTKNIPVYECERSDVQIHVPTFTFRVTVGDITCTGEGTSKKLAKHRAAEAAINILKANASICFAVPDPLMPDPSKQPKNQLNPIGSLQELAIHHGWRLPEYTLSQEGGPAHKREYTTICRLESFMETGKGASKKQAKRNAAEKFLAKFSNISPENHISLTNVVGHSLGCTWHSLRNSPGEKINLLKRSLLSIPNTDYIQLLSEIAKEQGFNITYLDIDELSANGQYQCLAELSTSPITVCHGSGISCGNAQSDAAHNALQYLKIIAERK
As to the kind of experiment: HTRF protein-protein interaction assay. It counts as binding.
Regarding `O=c1cc(-c2ccc(O)c(O)c2)oc2cc(O)cc(O)c12` [luteolin], the IC50 amounted to 50000 nM.

Molecule `O=c1c(O)c(-c2cc(O)c(O)c(O)c2)oc2cc(O)cc(O)c12` [myricetin] gave an IC50 of 600 nM.

The molecule `O=c1c(O)c(-c2ccc(O)c(O)c2)oc2cc(O)cc(O)c12` [quercetin] gave a half-inhibitory concentration (IC50) of 2000 nM.

The values above are taken from PMC5701060, “Inhibition of the inflammatory response to stress by targeting interaction between PKR and its cellular activator PACT” (Scientific Reports, 2017).
